Marks after values point to notes of the source that are not given here.
Key:
[1] = system: cisplatin-induced nephritis mice; test: Cisplatin-induced kidney damage mouse model; type: in vivo; settings: for body-weight loss in cisplatin-induced nephritis mice / kidney weight left / kidney weight right / urine / water intake / body weight: 10 mg/kg i.p.; for body-weight loss in cisplatin-induced nephritis mice: FIG. 25; for creatinine and BUN levels, treatment group vs vehicle group: cisplatin model, first statement of b267; for kidney weight left / kidney weight right / urine / water intake / body weight: cisplatin-induced mice at day 3; for body weight: cisplatin 16 mg/kg, n = 4-5; for kidney weight normalized to body weight / magnesium regulation (serum and urine magnesium) vs cisplatin vehicle group: day 3; for kidney weight normalized to body weight: FIG. 26; for magnesium regulation (serum and urine magnesium) vs cisplatin vehicle group: FIGS. 27A-27B; for kidney function as determined by blood urea nitrogen (BUN): day 3 serum, FIG. 28; for amount of PARP-1 protein in kidney (Western blot): vs cis(+) vehicle, FIG. 30B
Description: CBGA and/or CBD was injected intraperitoneally (i.p) 2 hours into C57BL/6 male mice (8 wks weighing 23-30 g) before cisplatin injection according to dosage schemes outlined below, and cisplatin-induced kidney damage was compared to normal kidneys. Sham treatment without cisplatin cis(−) was used as a negative control and cisplatin injection cis(+) without cannabinoid extract treatment was used as a positive vehicle control. Mice in group 1 (“vehicle”) received treatment with cisplatin (16 mg/kg body weight, lmg/mL in 0.90% NaCl, i.p) following intraperitoneal injection of vehicle control solution (5 mL/kg body weight) comprising 5% ethanol and 5% Tween80 in 0.9% NaCl. Mice in group 2 (“CBGA”) received treatment with cisplatin (16 mg/kg body weight, 1 mg/mL in 0.9% NaCl, i.p) following injection of CBGA (10 mg/kg body weight) 2 mg/mL in 5% ethanol, 5% Tween80 and 0.9% NaCl Mice in group 3 (“CBD”) received treatment with cisplatin (16 mg/kg body weight, 1 mg/mL in 0.9% NaCl, i.p) following intraperitoneal injection of CBD (10 mg/kg body weight) 2 mg/mL in 5% ethanol, 5% Tween80 and 0.9% NaCl. Mice in group 4 (“CBGA+CBD”) received treatment with cisplatin (16 mg/kg body weight, 1 mg/mL in 0.9% NaCl, i.p) following intraperitoneal injection of CBGA (10 mg/kg body weight)+CBD (10 mg/kg body weight) 2 mg/mL each in 5% ethanol, 5% Tween80 and 0.9% NaCl. Mice in group 5 (“cis(−)”) received sham injections comprising 0.9% NaCl (16 mL/kg body weight) following intraperitoneal injection of vehicle control solution (5 mL/kg body weight) 5% ethanol, 5% Tween80 and 0.9% NaCl.
Mice were euthanized at Day 3 following cisplatin injection, and kidneys were harvested and stored for processing and analysis.
Blood and urine were collected and analyzed to check kidney function. Blood was collected following euthanization, and urine was collected for 24 hrs before euthanasia in metabolic cages. […] Creatinine levels and BUN or urea value were measured from blood serum and urine samples to evaluate the kidney function. […] FIG. 29A-29B show measured creatinine levels in cisplatin-induced nephrotic mice at day 3. Urine was collected using a metabolic cage for 24 hours before sacrifice. Creatinine was assessed by an assay kit (n=4-5). Creatinine concentration in serum (FIG. 29A) and creatinine in urine (FIG. 29B) were maintained in cannabinoid-treated mice. *p<0.05 vs. cis(+) vehicle treatment group.
PARP-1 in cisplatin- and cannabinoid-treated kidney samples was evaluated by Western blot quantification. PARP activity increases to repair DNA damage, while it induces apoptosis when the cells have severe damage and can not be repaired in cisplatin-induced inflammatory kidneys. […] (FIG. 30A) PARP-1 in kidney tissue was evaluated by quantification of Western blot results, wherein α-tubulin was used as an internal control to normalize PARP-1 band quantification. […] PARP-1 was reduced in mice treated with cisplatin and cannabinoids, relative to mice treated with cisplatin and “vehicle” solution (FIG. 30B). Densitometric analysis was performed from the result of western blotting and presented as a bar graph (n=4-5). […] The rightmost bar represents the sham treatment (“cis(−)”), wherein mice received vehicle injections instead of both cisplatin and cannabinoid extracts as a negative control. **p<0.01 vs. cis(+) vehicle treatment group. CBGA reduced the amount of PARP-1 protein detected in cisplatin-induced nephritis mice. […]

[2] = system: SOCE in U937 human monocytes; test: SOCE Fura-2 bioassay in U937 cells; settings: Homo sapiens, U-937, read-out: IC50 SOCE, purified cannabinoids, U937; Table 5
Description: Briefly, SOCE inhibition experiments were performed as described in Example 8, using each of the hemp extracts listed below and in Tables 6A and 6B at six concentrations each in each of the five cell types listed above to obtain dose response curves, as shown in FIGS. 11A-11SS. […] All data are averages of three independent runs±SEM. […] Hemp extracts used in FIGS. 11A-11SS are: Sour Space Candy (SSC), Hawaiian Haze (HH), Special Sauce (SS), Suver Haze (SH), White CBG (WCBG), Elektra (ELEK), Cherry Wine (CW), Lifter (LIF), Grape Soda (GS).

[3] = system: SOCE in HEK-293 human embryonic kidney cells; test: SOCE Fura-2 bioassay in HEK293 cells; type: cell-based; settings: for IC50: Homo sapiens, HEK293, read-out: IC50 SOCE, purified cannabinoids, HEK-293, Table 5
[4] = system: SOCE in THP-1 human monocytes; test: SOCE Fura-2 bioassay in THP-1 cells; settings: for IC50: Homo sapiens, THP-1, read-out: IC50 SOCE, purified cannabinoids
[5] = target: TRPM7 (Homo sapiens, UniProt Q96QT4); test: Whole-cell patch clamp of TRPM7 outward current in Jurkat cells; type: cell-based; design: endogenous in cells; host or cells: Jurkat; settings: 10 μM
Chain of TRPM7 (Q96QT4 whole entry, the tested form may be a part): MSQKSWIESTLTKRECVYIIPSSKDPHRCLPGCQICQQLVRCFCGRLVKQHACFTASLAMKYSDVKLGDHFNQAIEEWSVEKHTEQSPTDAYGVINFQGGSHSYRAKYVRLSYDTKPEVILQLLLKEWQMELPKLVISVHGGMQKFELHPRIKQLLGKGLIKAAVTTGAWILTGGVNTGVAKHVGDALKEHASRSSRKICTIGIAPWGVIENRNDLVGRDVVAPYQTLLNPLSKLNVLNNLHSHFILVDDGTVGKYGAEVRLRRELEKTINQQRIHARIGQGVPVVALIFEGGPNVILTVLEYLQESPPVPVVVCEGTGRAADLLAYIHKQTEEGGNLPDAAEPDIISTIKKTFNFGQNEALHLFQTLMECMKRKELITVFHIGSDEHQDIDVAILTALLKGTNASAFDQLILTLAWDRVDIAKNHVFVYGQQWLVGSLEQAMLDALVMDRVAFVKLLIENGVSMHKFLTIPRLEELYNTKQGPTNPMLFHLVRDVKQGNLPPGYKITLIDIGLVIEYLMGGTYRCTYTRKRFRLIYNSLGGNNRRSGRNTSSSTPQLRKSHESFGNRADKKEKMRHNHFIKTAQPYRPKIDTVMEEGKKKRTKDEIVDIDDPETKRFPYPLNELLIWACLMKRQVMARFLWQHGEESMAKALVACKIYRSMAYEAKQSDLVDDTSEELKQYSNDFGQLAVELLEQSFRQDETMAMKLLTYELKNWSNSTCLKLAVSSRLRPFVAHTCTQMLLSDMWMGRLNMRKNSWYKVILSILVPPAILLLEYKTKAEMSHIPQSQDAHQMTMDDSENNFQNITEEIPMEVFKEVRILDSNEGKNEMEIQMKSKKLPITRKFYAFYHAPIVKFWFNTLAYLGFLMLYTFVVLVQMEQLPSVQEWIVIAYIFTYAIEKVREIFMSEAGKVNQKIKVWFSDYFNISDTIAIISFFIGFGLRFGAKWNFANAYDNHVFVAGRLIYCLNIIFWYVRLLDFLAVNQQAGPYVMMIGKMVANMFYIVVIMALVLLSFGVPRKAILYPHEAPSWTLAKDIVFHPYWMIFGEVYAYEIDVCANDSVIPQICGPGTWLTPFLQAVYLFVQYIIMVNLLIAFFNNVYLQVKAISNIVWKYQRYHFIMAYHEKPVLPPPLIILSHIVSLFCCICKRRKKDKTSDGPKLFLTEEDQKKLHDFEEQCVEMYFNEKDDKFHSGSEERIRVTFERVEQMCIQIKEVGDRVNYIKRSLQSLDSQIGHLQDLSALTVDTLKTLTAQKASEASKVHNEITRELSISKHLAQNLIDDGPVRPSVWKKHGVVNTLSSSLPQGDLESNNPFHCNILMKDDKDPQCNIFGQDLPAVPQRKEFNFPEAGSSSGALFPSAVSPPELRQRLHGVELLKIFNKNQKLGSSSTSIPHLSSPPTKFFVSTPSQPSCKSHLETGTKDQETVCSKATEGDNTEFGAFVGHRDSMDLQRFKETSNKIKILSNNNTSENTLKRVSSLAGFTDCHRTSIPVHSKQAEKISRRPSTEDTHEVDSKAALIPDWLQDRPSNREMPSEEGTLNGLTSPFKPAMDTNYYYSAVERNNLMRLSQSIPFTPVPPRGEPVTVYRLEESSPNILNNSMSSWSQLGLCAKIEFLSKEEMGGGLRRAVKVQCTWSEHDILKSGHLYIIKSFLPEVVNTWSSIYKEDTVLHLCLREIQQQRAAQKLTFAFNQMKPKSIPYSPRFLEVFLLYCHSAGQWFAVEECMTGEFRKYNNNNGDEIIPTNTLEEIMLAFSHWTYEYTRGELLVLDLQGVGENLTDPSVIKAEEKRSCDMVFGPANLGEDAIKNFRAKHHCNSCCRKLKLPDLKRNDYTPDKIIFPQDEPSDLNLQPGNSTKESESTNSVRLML
Description: (§1) Inward CRAC currents were induced at −120 mV (gray trace) and outward currents at +40 mV (black trace, where CRAC currents reverse and are essentially absent). At the +40 mV voltage potential, TRPM7 channels produce monovalent outward currents. Perfusion of 50 μM IP3 activates ICRAC at −120 mV as above and the removal of intracellular ATP slowly activates TRPM7 current at +40 mV. Application of 10 μM CBGA blocks both outward TRPM7 and inward CRAC currents (see FIG. 13, black and gray traces, respectively). Without being bound by theory, CBGA may also block TRPM7's kinase activity, similar to other TRPM7 blockers such as NS8593.

[6] = system: SOCE-mediated increases in intracellular Ca^2+; test: SOCE dose-response of CBGA (FIG. 15); type: cell-based; settings: read-out: IC50 inhibition of SOCE-mediated increases in intracellular Ca^2+
Excerpt: Data from dose-response curves for the inhibition of TRPM7 currents (dark gray symbols) obtained in experiments shown in FIG. 14 and SOCE-mediated increases in intracellular Ca^2+ (light gray symbols) are shown in FIG. 15.

[7] = system: CRAC channels (ICRAC); test: Whole-cell patch clamp of IP3-induced ICRAC in Jurkat cells; type: cell-based, human; settings: 10 μM, 50 μM IP3
Description: The ability of CBGA to inhibit store-operated calcium entry (SOCE) within cells was experimentally interrogated (see FIG. 12). Jurkat cells were perfused with 50 μM IP3 to induce store depletion and activation of CRAC channels (the resulting Ca^2+ inward current is known as ICRAC). ICRAC is a long-lasting inward current at −120 mV membrane potential (black trace) that can be blocked by 10 μM CBGA (gray trace).
as §1

| Compound | body-weight loss in cisplatin-induced nephritis mice [1] | creatinine and BUN levels, treatment group vs vehicle group [1] | kidney weight left [1] | kidney weight right [1] [mg] | urine [1] [mL] | water intake [1] | body weight [1] | kidney weight normalized to body weight [1] | magnesium regulation (serum and urine magnesium) vs cisplatin vehicle group [1] | kidney function as determined by blood urea nitrogen (BUN) [1] | amount of PARP-1 protein in kidney (Western blot) [1] | IC50 [2] [µM] | IC50 [3] [µM] | IC50 [4] [µM] | combinatory effect when paired with 2.2 μM CBGA ([4]; THP-1, 10 μM cannabinoid + 2.2 μM CBGA, FIG. 10Z) | mRNA expression of inflammatory markers (TNF-α, IL-6, Cxcl10, ICAM-1, MCP-1, CRP, ET-1) in kidney ([1]; qRT-PCR, cis(+)-induced increase, FIGS. 31A-31G) | block of outward TRPM7 current at +40 mV [5] | inhibitory effect in immune cells compared with non-immune HEK293 cells ([3]; 10 μM, HEK293 (FIG. 8) vs immune cells) | IC50 [6] [µM] | block of inward calcium current ICRAC at −120 mV [7] |
| --- | --- | --- | --- | --- | --- | --- | --- | --- | --- | --- | --- | --- | --- | --- | --- | --- | --- | --- | --- | --- |
| C=C(C)[C@@H]1CCC(C)=C[C@H]1c1c(O)cc(CCCCC)cc1O [CBD, (1′R,2′R)-5′-methyl-4-penlyl-2′-(prop-1-en-2-yl)-1′,2′,3′,4′-tetrahydro-[1,1′-biphenyl]-2,6-diol] | didn't affect | did not change | 121 ± 5.0** mg | 132 ± 6.8 | 1.042 ± 0.131 | 1.79 ± 0.37** mL | 20.23 ± 0.82* g | No significant difference | protected magnesium regulation | maintained kidney function | reduced | > 50 | > 50 | > 50 | sub-additive |  |  |  |  |  |
| CCCCCc1cc(O)c(C/C=C(\C)CCC=C(C)C)c(O)c1C(=O)O [CBGA, (E)-3-(3,7-dimethylocta-2,6-dien-1-yl)-2,4-dihydroxy-6-pentylbenzoic acid] | recovered | did not change | 128 ± 8.2** mg | 139 ± 10.8 | 1.162 ± 0.128 | 2.50 ± 0.50* mL | 20.85 ± 1.29 g | No significant difference | maintained magnesium regulation | maintained kidney function | reduced | 2.23 | 3.6 | 2.21 |  | significantly reduced | blocks | more potent | ~2 | completely blocks |

From patent US20230091336A1, “CANNABINOID COMPOSITIONS” (priority 2020, published 2023)
